PubChem BioAssay (NCI)
Several values for one entry are separate records, joined by “and”; a condition that tells them apart may be missing. Identical values can stand only once.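 Method: 48-hour compound exposure of cells in 96-well plates, five concentrations, linear interpolation of endpoints. GI50 = concentration required for 50% inhibition of growth. TGI: concentration producing complete growth inhibition.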

What was measured:
Assay in all cases: DTP human tumour cell line panel, 48 h
[1] = test system: SF-295 CNS
[2] = test system: HT29 colon
[3] = test system: MOLT-4 leukemia
[4] = test system: NCI-H226 lung
[5] = test system: A549 NSCLC
[6] = test system: SNB-19 CNS
[7] = test system: LOX IMVI melanoma
[8] = test system: UACC-62 melanoma
[9] = test system: CAKI-1 renal
[10] = test system: HS 578T breast

Compound | TGI [1] [µM] | TGI [2] [µM] | TGI [3] [µM] | TGI [4] [µM] | TGI [5] [µM] | TGI [6] [µM] | TGI [7] [µM] | TGI [8] | TGI [9] [µM] | GI50 [1] [µM] | GI50 [2] [µM] | GI50 [10] [µM] | TGI [10] [µM] | GI50 [3] [µM] | GI50 [4] [µM] | GI50 [5] [µM] | GI50 [6] [µM] | GI50 [7] [µM] | GI50 [8] [µM] | GI50 [9] [µM]
O=C(O)c1ccccc1NC(=O)C1CCCCC1 | > 100 | > 100 | > 100 | > 100 | > 100 | > 100 | > 100 | > 100 µM |  |  |  |  |  |  |  |  |  |  |  | 
c1ccc2c(c1)C1=NCCN1c1ccccc1-2 | 31.4 | 7.85 | 8.99 |  | 27.1 | 16.2 | 10.4 | 13 µM | 9.05 |  |  |  |  |  |  |  |  |  |  | 
O=C(CC1C(=O)Nc2ccccc2S1=O)Nc1ccc(Cl)cc1 (stereo not given) | > 100 | > 100 | > 100 | > 100 | > 100 | > 100 | > 100 | > 100 µM | > 100 |  |  |  |  |  |  |  |  |  |  | 
COC1OC2COC(c3ccccc3)OC2C(O)C1Br (stereo not given) | > 100 | > 100 | > 100 |  | > 100 | > 100 | > 100 | > 100 µM | > 100 |  |  |  |  |  |  |  |  |  |  | 
CC1=C(/C=C/C(C)=C/C=C/C(C)=C/CO)C(C)(C)CCC1 | 58.3 | > 100 | 44.4 | 50.9 | 45.5 | 69.4 | 43.5 | 45.9 µM | > 100 |  |  |  |  |  |  |  |  |  |  | 
O=C1C=CC(CC(=O)c2ccc3ccccc3c2)O1 (stereo not given) | > 100 | 33.1 | 65.6 |  | > 100 | 76.8 | 35.8 | 34.6 µM | > 100 |  |  |  |  |  |  |  |  |  |  | 
CC12Oc3ccc4ccccc4c3CC1Cc1c(ccc3ccccc13)O2 (stereo not given) | > 100 | > 100 |  | > 100 | > 100 | > 100 | > 100 |  | > 100 |  |  |  |  |  |  |  |  |  |  | 
Cc1nc(Nc2nc3ccccc3o2)nc(-c2cccc([N+](=O)[O-])c2)c1C(=O)Nc1ccc(F)c(Cl)c1 | 7.09 | 19.5 | 16.9 | > 100 | > 100 | > 100 | > 100 | > 100 µM |  | 1.65 | 2.21 | 2.87 | 38.8 | 3.24 | 3.05 | 1.92 | 2.32 | 2.78 | 2.29 | 
C[C@H]1C(=O)CC[C@]2(C)CCC(C(C)(C)O)CC12O (stereo not given in full) | > 100 | > 100 | > 100 | > 100 | > 100 | > 100 | > 100 | > 100 µM | > 100 |  |  |  |  |  |  |  |  |  |  | 
O=[N+]([O-])c1ccc(Cl)cc1C1SCc2nc3ccccc3n21 (stereo not given) | > 100 | > 100 | > 100 |  | > 100 | > 100 |  | > 100 µM | > 100 |  |  |  |  |  |  |  |  |  |  | 
O=C1OC(OCC#CCOC2OC(=O)C(Cl)=C2Cl)C(Cl)=C1Cl (stereo not given) | 60.4 | 18.1 | 6.17 |  | 38.9 | 42.5 | 11.1 | 38.3 µM |  |  |  |  | 50.5 |  |  |  |  |  |  | 
CNC(=O)OCC1C2=C(C(=O)C(C)=C(N)C2=O)N2CC3C(N3C)C12OC (stereo not given) | 67 | 34.7 | 36.9 | > 100 | 29.5 | > 100 | 33.9 | 22.2 µM | 32.7 |  |  |  |  |  |  |  |  |  |  | 
O=S(=O)(C/C(=N\O)c1ccccc1)c1ccccc1 | > 100 | > 100 | > 100 | > 100 | > 100 | > 100 | > 100 | > 100 µM | > 100 |  |  |  |  |  |  |  |  |  |  | 
Cc1cc2c(C)n(Cc3ccc(Cl)cc3Cl)nc2c(C(=O)O)c1C | > 100 | > 100 | > 100 | > 100 | > 100 | > 100 | > 100 | > 100 µM |  |  |  |  |  |  |  |  |  |  |  | 
O=C1c2nc3n(c2C(=O)c2c1nc1n2CCC1)CCC3 | 17.9 | 10.8 | > 67.6 | 19.1 | 18.1 | 27.9 | 13.4 | 5.5 µM and 3.65 µM | 23.9 | 6.72 | 5.14 |  |  |  | 7.84 | 5.11 |  | 3.75 | 2.21 | 
Cc1ccccc1-n1c(C)nc(-c2ccccc2)cc1=O | > 100 | > 100 | > 100 | > 100 | > 100 | > 100 | > 100 | > 100 µM | > 100 |  |  |  |  |  |  |  |  |  |  | 
Nn1c(N=Nc2c(O)[nH]c3c(Cl)cc(Cl)cc23)n[nH]c1=S | > 100 | > 100 | > 100 | > 100 | > 100 | > 100 | > 100 | > 100 µM | > 100 |  |  |  |  |  |  |  |  |  |  | 
COC1=C2CC(C)CC(OC)C(O)C(C)/C=C(\C)C(OC(N)=O)C(OC)/C=C\C=C(/C)C(=O)NC(=C(/C=N/N3CCCCC3)C1=O)C2=O (stereo not given) | 30.1 | 26.6 | 7.39 | 34.5 | 46.7 | 41.9 | 22.3 | 48.1 µM | 37 |  |  |  |  |  |  |  |  |  |  | 

Compound | TGI [1] [µM] | TGI [2] [µM] | TGI [3] [µM] | TGI [4] [µM] | TGI [5] [µM] | TGI [6] [µM] | TGI [7] [µM] | TGI [8] | TGI [9] [µM] | GI50 [1] [µM] | GI50 [2] [µM] | GI50 [10] [µM] | TGI [10] [µM] | GI50 [3] [µM] | GI50 [4] [µM] | GI50 [5] [µM] | GI50 [6] [µM] | GI50 [7] [µM] | GI50 [8] [µM] | GI50 [9] [µM]
CC1(C)OC(=O)C=C([O-])O1.CC1(C)OC(=O)C=C([O-])O1.CC[O-].CC[O-].[Ti+4] | > 100 | > 100 | > 100 | > 100 | > 100 | > 100 | > 100 | > 100 µM | > 100 | > 100 | > 100 |  |  | > 100 | > 100 | > 100 | > 100 | > 100 | > 100 | > 100
COc1ccc2nc(NC(=O)C(=O)C(C#N)c3ccc(Cl)c(Cl)c3)sc2c1 (stereo not given) | > 100 | > 100 |  | > 100 | > 100 | > 100 | > 100 | > 100 µM | > 100 |  |  |  |  |  |  |  |  |  |  | 
CN(C)C(=S)/N=c1\ss/c(=N\S(=O)(=O)c2ccccc2)n1N(C)C |  |  | > 100 | > 100 | > 100 | > 100 |  | > 100 µM | > 100 |  |  |  |  |  |  |  |  |  |  | 
O=C(O)CCSC(=O)Nc1ccc(N=Nc2ccccc2)cc1 | > 100 | > 100 | > 100 | > 100 | > 100 | > 100 | > 100 | > 100 µM | > 100 |  |  |  |  |  |  |  |  |  |  | 
COc1ccc2c(c1OC)C(=O)c1cnccc1C2=O | > 100 | > 100 | > 100 | > 100 | > 100 | > 100 | > 100 | > 100 µM | > 100 |  |  |  |  |  |  |  |  |  |  | 
O=C(NS(=O)(=O)c1ccccc1)C(Cc1ccccc1)C(Cc1ccccc1)C(=O)NS(=O)(=O)c1ccccc1 (stereo not given) | > 100 | > 100 | > 100 | > 100 | > 100 | > 100 | > 100 | > 100 µM | > 100 |  |  |  |  |  |  |  |  |  |  | 
CN1CC(=O)N(C)c2nc[nH]c2C1=O | > 100 | > 100 | > 100 | > 100 | > 100 | > 100 | > 100 | > 100 µM |  |  |  |  |  |  |  |  |  |  |  | 
O=C(/C=C1/Nc2ccc([N+](=O)[O-])cc2NC1O)c1cccc([N+](=O)[O-])c1 (stereo not given) | 38.3 | > 100 | > 100 | > 100 | > 100 | > 100 | > 100 | > 100 µM | > 100 |  |  |  |  |  |  |  |  |  |  | 
CCC(Oc1ccc(OC)c2ccccc(=O)c12)C(=O)O (stereo not given) | > 100 | > 100 | > 100 | > 100 | > 100 | > 100 | > 100 | > 100 µM |  |  |  |  |  |  |  |  |  |  |  | 
Cc1cccc(Nc2cnc(N)nc2N)c1 | > 100 | > 100 | > 100 | > 100 | > 100 | > 100 | > 100 | > 100 µM | > 100 |  |  |  |  |  |  |  |  |  |  | 
O=C1NC(=O)C2C1N(Cc1ccccc1)C(=O)N2Cc1ccccc1 (stereo not given) | > 100 | > 100 | > 100 | > 100 | > 100 | > 100 | > 100 | > 100 µM | > 100 |  |  |  |  |  |  |  |  |  |  | 
O=C(NO)c1ccc(O)c(O)c1 | > 100 | > 100 | > 100 | > 100 | > 100 | > 100 |  | > 100 µM | > 100 |  |  |  |  |  |  |  |  |  |  | 
COC(=O)C1=C(c2ccc3c(c2)OCO3)OC(c2cc(OC)c(OC)c(OC)c2)C1 (stereo not given) | > 100 | 4.63 | > 100 | > 100 | > 100 | > 100 | > 100 | 19.2 µM | > 100 |  |  |  |  |  |  |  |  |  |  | 
Cc1cccc2nc3cccc(C(=O)NCCN(C)C)c3nc12 | 14.3 | 5.44 | > 100 | 4.17 | 15.3 | 5.27 | 11.6 | 2.42 µM | 15.8 |  |  |  |  |  |  |  |  |  |  | 
O=C(O)C1=C(C(=O)Nc2ccc(NC(=O)C3=C(C(=O)O)C4C=CC3C4)cc2)C2C=CC1C2 | > 100 | > 100 | > 100 |  | > 100 | > 100 | > 100 | > 100 µM | > 100 |  |  |  |  |  |  |  |  |  |  | 
COC(=O)CCC(=O)NC1C2CC3CC(C2)CC1C3 (stereo not given) | > 100 | > 100 | > 100 |  | > 100 | > 100 | > 100 | > 100 µM | > 100 |  |  |  |  |  |  |  |  |  |  | 
CC1=CC(=O)N(c2c(C)cccc2Cl)C(C)N1 (stereo not given) | > 100 | > 100 | > 100 | > 100 | > 100 | > 100 | > 100 | > 100 µM | > 100 |  |  |  |  |  |  |  |  |  |  | 
